Data taken from patent publication US11135445B2, “Antimicrobial photodynamic inactivation procedure and system” (The General Hospital Corporation, priority 2014, dated 2021).

Legend:
S. aureus [1] = experiment: MB-mediated PDI in vitro with/without KI; format: cell-based, Staphylococcus aureus (NCTC 8325); details: without light
Procedure: (§1) 2) Staphylococcus aureus (NCTC 8325) and Escherichia coli K12 (ATCC 33780) were chosen as representative Gram (+) and Gram (−) bacteria respectively, for in vitro studies. A colony of bacteria was suspended in 25 ml of brain heart infusion (BHI) broth (Becton, Dickinson, and Company, Franklin Lakes, N.J.) and grown overnight in a shaker incubator (New Brunswick Scientific, Edison, N.J.) at 120 rpm in aerobic condition at 37° C. An aliquot of 1 ml from overnight suspension was refreshed in fresh BHI for 2 hours at 37° C. to mid-log phase. Cell concentration was estimated by measuring the optical density (OD) at 600 nm [OD of 0.8=10^8 colony forming units (CFU) cells/mL]. Bacterial suspension was centrifuged, washed and re-suspended in PBS to arrest microbial growth, and used (10^8 CFU) for the in vitro or in vivo experiments.
(§2) In vitro PDI studies were carried with S. aureus and with E. coli. […] An aliquot of 100 ul was used as dark control from each sample, another (100 ul) was irradiated with 5 J/cm^2 dose of light (660 nm light) and then placed in a new 96 well plate. The aliquots were serially diluted 10-fold in PBS to give dilutions of 10^1 to 10^5 times in addition to the original concentration. From each dilution 10 microleter aliquots were seeded horizontally on BHI agar. […] Each experiment was performed at least three times.

E. coli [2] = experiment: MB-mediated PDI in vitro with/without KI; format: cell-based, Escherichia coli K12 (ATCC 33780); details: without light
Procedure: as §1, §2

S. aureus [3] = experiment: Bacteria added after completion of light delivery (MB); format: cell-based, Staphylococcus aureus; details: solution irradiated 5 J/cm^2, incubation 5-30 minutes
Procedure: (§3) To verify if long-lived species such as molecular iodine (I2) or hypoiodous acid (HOI) could be responsible for increased bacterial killing we added bacteria after completion of light delivery.
(§4) We irradiated with 5 J/cm^2 the solutions containing MB or MB+KI to generate the iodine species observed in the spectra described above. Since […] is a stable molecule, and even HOI is reasonably stable with a measurable half-life, by incubating the cells in a solution that could contain photochemically produced bactericidal concentrations of I2 or HOI, we expected to observe bacterial killing. We added bacterial cells and we evaluated the survival fraction of bacteria in an incubation time range between 5 and 30 minutes.

E. coli [4] = experiment: as above; format: cell-based, Escherichia coli; details: solution irradiated 5 J/cm^2, incubation 5-30 minutes
Procedure: as §3, §4

MRSA = experiment: In vivo PDI of burn infected with bioluminescent MRSA; set-up: species or system murine
Excerpt: In another related embodiment, the implementation of invention as discussed in Example 1 was extended to in vivo studies in a murine infection model of burn and carried out with the use of bioluminescent MRSA and in vivo imaging. The goal here was to verify the increase of the efficacy of PDI-process of bacterial killing by adding KI to MB in an in vivo infection model.
Aggregately, FIGS. 17A through 17E represent a set of 5 representative bioluminescence image time courses from the burn (each time course from a single mouse in each of the 5 groups) infected with MRSA. […] The amount of light required to eradicate bacteria from the wound was much less when the bacteria treated with the (MB+KI) solution was irradiated than when MB alone was used to pre-treat bacteria prior to irradiation.

CN(C)c1ccc2nc3ccc(=[N+](C)C)cc-3sc2c1 [MB, Methylene blue]
dark toxicity (S. aureus [1]): lack of killing without light | dark toxicity (E. coli [2]): lack of killing without light | killing of bacteria added after irradiation of the solution (S. aureus [3]): did not observe any bacterial killing | killing of bacteria added after irradiation of the solution (E. coli [4]): did not observe any bacterial killing | bacterial bioluminescence during PDI (MRSA; 50 μM MB, with or without 10 mM KI, 660 nm up to 150 J/cm^2): light dose-dependent reduction | decrease in bacterial bioluminescence (MRSA; 660 nm light, n=6): around 2 log unit | bacterial re-growth / recurrence after PDI (MRSA; follow-up over days after PDI): not effective to prevent recurrence
